Laboratory results as given in patent publication US20150150266A1, “PESTICIDE COMPOUNDS, USE THEREOF AND METHOD OF PROTECTION OF PLANTS” (AGRA GROUP, A.S., priority 2012, published 2015).
Marks after values point to notes of the source that are not given here.

Tests used:
Hordeum vulgare L. = assay: Field trial with crops, foliar spraying at BBCH 62; format: in vivo; settings: for Yield / Yield, % of the control: foliar spraying of wettable powder A; for Yield, % of the control: control = water
Method: (§1) The experimental field was chosen in a warm region suitable for beet cultivation, with sufficient precipitation, soil type was brown earth. The plants were treated using a common agrotechnology, with the exception of the application of fungicidal protection. […] Water was used as the negative control.
(§2) At the end of the vegetative season, the crops were harvested and the yield was determined.

Triticum aestivum L. = assay: Field trial with crops, foliar spraying at BBCH 62; format: in vivo; settings: for Yield / Yield, % of the control: foliar spraying of wettable powder A; for Yield, % of the control: control = water
Method: as §1, §2

Fusarium oxysporum = assay: Fungal mycelium growth inhibition assay (agar dilution); format: cell-based; settings: 7 days at 21° C.
Method: (§3) The assay for inhibitory activity of compounds of general formula (I) to radial growth and morphological effects to mycelia was carried out in agar by a multiple dilution method. The compound was diluted to concentrations shown in the Table in potato dextrose agar prepared in accordance with manufacturer's instructions. Petri dishes were filled with the thus prepared agar and aseptically inoculated with a disc of the diameter of 0.4 cm cut from a 7-day agar culture of the respective fungus. Controls were prepared in an analogous manner, using sterile distilled water instead of compound of general formula (I). The Petri dishes were incubated for 7 days at 21° C. and then the diameter of the colonies was measured. The percentage of inhibition of radial growth of the respective fungus was calculated according to the following equation: inhibition [%]=(DC-DT)/DC×100, wherein DC is the diameter of control colony and DT is the diameter of the colony grown on the agar containing the respective amount of compound of general formula (I). Standard deviation corresponds to averages from 3 replications.
(§4) The compound Cu2SO3.CuSO3.2H2O inhibited the growth of all tested mycelia (Table 1). Individual micelia have shown a variation in the sensitivity to the compound and concentration dependency on the fungicide dose was observed.

Aspergillus fumigatus = assay: as above; format: cell-based; settings: 7 days at 21° C.
Method: as §3, §4

Fusarium verticillioides = assay: as above; format: cell-based; settings: 7 days at 21° C.
Method: as §3, §4

[1] = test system: Penicillium brevicompactum; assay: as above; format: cell-based; settings: 7 days at 21° C.
Method: as §3, §4

Aspergillus flavus = assay: as above; format: cell-based; settings: 7 days at 21° C.
Method: as §3, §4

Penicillium expansum = assay: as above; format: cell-based; settings: 7 days at 21° C.
Method: as §3, §4

Structure (SMILES): O.O.O=S([O-])[O-].O=S([O-])[O-].[Cu+2].[Cu+].[Cu+] [Cu2SO3•CuSO3•2H2O, Cu2SO3.CuSO3.2H2O (Chevreul's salt)]
- Yield (Hordeum vulgare L.; 2011, 125 g/ha): 8.65 t/ha
- Yield, % of the control (Hordeum vulgare L.; 2011, 125 g/ha): 103.2%
- Yield (Hordeum vulgare L.; 2011, 625 g/ha): 8.73 t/ha
- Yield, % of the control (Hordeum vulgare L.; 2011, 625 g/ha): 104.2%
- Phytotoxic effects (Hordeum vulgare L.; 2011, high dose 625 g/ha): No phytotoxic effects were observed even at this dose
- Occurrence of fusarioses or other fungal diseases (Hordeum vulgare L.; field trial, doses of Table 3): neither occurrence of fusarioses or other fungal diseases
- Phytotoxic effects (Hordeum vulgare L.; field trial, doses of Table 3): No phytotoxic effects were observed
- Yield (Triticum aestivum L.; 2010, 125 g/ha): 7.34 t/ha
- Yield, % of the control (Triticum aestivum L.; 2010, 125 g/ha): 104.7%
- Yield (Triticum aestivum L.; 2011, 125 g/ha): 8.45 t/ha
- Yield, % of the control (Triticum aestivum L.; 2011, 125 g/ha): 108.1%
- Yield (Triticum aestivum L.; 2011, 625 g/ha): 8.60 t/ha
- Yield, % of the control (Triticum aestivum L.; 2011, 625 g/ha): 110.1%
- Phytotoxic effects (Triticum aestivum L.; 2011, high dose 625 g/ha): No phytotoxic effects were observed even at this dose
- Occurrence of fusarioses or other fungal diseases (Triticum aestivum L.; field trial, doses of Table 3): neither occurrence of fusarioses or other fungal diseases
- Phytotoxic effects (Triticum aestivum L.; field trial, doses of Table 3): No phytotoxic effects were observed
- Percentage of radial growth inhibition (Fusarium oxysporum; 0.3 mg/mL agar): 6.72 ± 0.05% ^1)
- Percentage of radial growth inhibition (Fusarium oxysporum; 0.4 mg/mL agar): 59.70 ± 0.16% ^1)
- Percentage of radial growth inhibition (Fusarium oxysporum; 0.5 mg/mL agar): 97.76 ± 0.00%
- Percentage of radial growth inhibition (Aspergillus fumigatus; 0.3 mg/mL agar): 100.00 ± 0.00%
- Percentage of radial growth inhibition (Aspergillus fumigatus; 0.4 mg/mL agar): 100.00 ± 0.00%
- Percentage of radial growth inhibition (Aspergillus fumigatus; 0.5 mg/mL agar): 100.00 ± 0.00%
- Percentage of radial growth inhibition (Fusarium verticillioides; 0.3 mg/mL agar): −2.81 ± 0.00% ^2)
- Percentage of radial growth inhibition (Fusarium verticillioides; 0.4 mg/mL agar): 19.10 ± 0.16% ^2)
- Percentage of radial growth inhibition (Fusarium verticillioides; 0.5 mg/mL agar): 30.90 ± 0.00% ^2)
- Percentage of radial growth inhibition ([1]; 0.3 mg/mL agar): 77.78 ± 0.09%
- Percentage of radial growth inhibition ([1]; 0.4 mg/mL agar): 95.24 ± 0.00%
- Percentage of radial growth inhibition ([1]; 0.5 mg/mL agar): 100.00 ± 0.00%
- Percentage of radial growth inhibition (Aspergillus flavus; 0.3 mg/mL agar): 97.67 ± 0.05%
- Percentage of radial growth inhibition (Aspergillus flavus; 0.4 mg/mL agar): 98.84 ± 0.05%
- Percentage of radial growth inhibition (Aspergillus flavus; 0.5 mg/mL agar): 100.00 ± 0.00%
- Percentage of radial growth inhibition (Penicillium expansum; 0.3 mg/mL agar): 98.37 ± 0.05%
- Percentage of radial growth inhibition (Penicillium expansum; 0.4 mg/mL agar): 96.75 ± 0.05%
- Percentage of radial growth inhibition (Penicillium expansum; 0.5 mg/mL agar): 100.00 ± 0.00%
